In PubChem BioAssay (NCI):
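Cells were grown in 96-well plates and exposed to each compound for 48 hours at five concentrations; endpoints were interpolated linearly between bracketing concentrations, or set to the highest concentration if not reached. GI50 marks 50% less growth. Definition used: TGI = concentration required for complete inhibition of growth.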

Experiments:
Test in all cases: inhibition of tumour cell growth, NCI panel, 48 h
[1] = tested on: HCC-2998 colon
[2] = tested on: NCI/ADR-RES ovarian
[3] = tested on: UACC-62 melanoma
[4] = tested on: UO-31 renal
[5] = tested on: HCT-15 colon
[6] = tested on: RPMI-8226 leukemia
[7] = tested on: T-47D breast
[8] = tested on: SW-620 colon
[9] = tested on: SNB-75 CNS

| Compound | GI50 [1] | TGI [1] | GI50 [2] | TGI [2] | GI50 [3] | TGI [3] | GI50 [4] | TGI [4] | GI50 [5] | TGI [5] | GI50 [6] | TGI [6] | GI50 [7] | TGI [7] | GI50 [8] | TGI [8] | GI50 [9] | TGI [9] |
| --- | --- | --- | --- | --- | --- | --- | --- | --- | --- | --- | --- | --- | --- | --- | --- | --- | --- | --- |
| COc1cc2cc(Oc3ccc(NC(=O)Nc4ccc(Cl)c(C(F)(F)F)c4)cc3)c(C)nc2cc1OCCN1CCOCC1 | 3.68 µM | 11.1 µM | 2.34 µM | 12.6 µM | 1.36 µM | 3.46 µM | 1.4 µM | 3.34 µM | 1.45 µM | 3.18 µM | 0.936 µM | 4.34 µM | 1.32 µM | 5.2 µM | 2.31 µM | 5.52 µM | 1.65 µM | 7.05 µM |
| CCOC1Oc2ccc(C)cc2C(=O)/C1=C\Nc1ccc(C(N)=O)cc1 (stereo unspecified) | 20.3 µM | 39 µM | 17.7 µM | 44.7 µM | 13.6 µM | 30.8 µM | 21.2 µM | 59.7 µM | 11.4 µM | 30.6 µM | 18.6 µM | 90.5 µM | 6.13 µM | > 100 µM | 15.2 µM | 51.2 µM | 44.5 µM | > 100 µM |
| CS(=O)(=O)CCNCc1ccc(-c2ccc3ncnc(Nc4ccc(OCc5ccccc5)cc4)c3c2)o1 | 5.26 µM | 12.1 µM | 6.71 µM | > 25 µM | 4.68 µM | 8.98 µM | 2.95 µM | 8.95 µM | 4.13 µM | 13.4 µM | 5.38 µM | > 16.8 µM | 4.01 µM | > 25 µM | 6.94 µM | > 17.3 µM | 5.71 µM | > 25 µM |
| Cc1cc(Cl)cc2c1NC(=O)C2(O)CC(=O)c1ccco1 (stereo unspecified) | – | > 100 µM | – | > 100 µM | – | 67.5 µM | – | > 100 µM | – | > 100 µM | – | > 83.7 µM | – | > 100 µM | – | > 100 µM | – | > 100 µM |
| CCN(CC)CCCC(C)Nc1c2ccc(Cl)cc2nc2ccc(O)cc12 (stereo unspecified) | 2.44 µM | 6.97 µM | 11 µM | 26.4 µM | 1.89 µM | 4.02 µM | 1.18 µM | 2.65 µM | 2.98 µM | 11 µM | 2.4 µM | 6.76 µM | 3 µM | 11.6 µM | 1.16 µM | 4.13 µM | 1.62 µM | 3.86 µM |
